Legend:
Type in all cases: in vivo
[1] = tested on: upland rice (Oryza sp., var.Tebonnet, RICE); test: Pre-emerge greenhouse test, crop damage rating; settings: 14 days after application, rating scale 0-100
Method in brief: (§1)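 Seeds sown in sandy loam mix one day before track-sprayer application of compounds in acetone at 125–1000 g ai/ha (187 l/ha), then surface-watered to incorporate and bottom-watered. Visual rating 14 days after application on a 0–100 scale (0 = no damage, 100 = all plants dead).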

[2] = tested on: field corn (Zea mays L., var. Dekalb 535, CORN); test: Pre-emerge greenhouse test, crop damage rating; settings: 14 days after application, rating scale 0-100
Method in brief: as §1

[3] = tested on: ivyleaf morningglory (Ipomoea hederacea, IPOHE); test: Pre-emerge greenhouse herbicide test, phytotoxicity rating; settings: 14 days after application, rating scale 0-100
Method in brief: as §1

[4] = tested on: common ragweed (Ambrosia artemisiifolia L., AMBEL); test: as above; settings: 14 days after application, rating scale 0-100
Method in brief: as §1

[5] = tested on: velvetleaf (Abutilon theophrasti, ABUTH); test: as above; settings: 14 days after application, rating scale 0-100
Method in brief: as §1

[6] = tested on: lambsquarters (Chenopodium album, CHEAL); test: as above; settings: 14 days after application, rating scale 0-100
Method in brief: as §1

[7] = tested on: sicklepod (Cassia obtusifolia, CASOB); test: as above; settings: 14 days after application, rating scale 0-100
Method in brief: as §1

[8] = tested on: green foxtail (Setaria viridis, SETVI); test: as above; settings: 14 days after application, rating scale 0-100
Method in brief: as §1

[9] = tested on: Johnsongrass (Sorghum halepense, SORHA); test: as above; settings: 14 days after application, rating scale 0-100
Method in brief: as §1

[10] = tested on: large crabgrass (Digitaria sanguinalis, DIGSA); test: as above; settings: 14 days after application, rating scale 0-100
Method in brief: as §1

[11] = tested on: barnyardgrass (Echinochloa crusgalli, ECHCG); test: as above; settings: 14 days after application, rating scale 0-100
Method in brief: as §1

[12] = tested on: redroot pigweed (Amaranthus retroflexus, AMARE); test: as above; settings: 14 days after application, rating scale 0-100
Method in brief: as §1

[13] = tested on: ivyleaf morningglory (Ipomoea hederacea, IPOHE); test: Post-emerge greenhouse herbicide test, phytotoxicity rating; settings: 14 days after application
Method in brief: (§2)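 Compounds in acetone with 0.25% v/v non-ionic surfactant were track-sprayed at 187 l/ha over plants at the 2-3 leaf stage, at 63 to 1000 g ai/ha. Pots were bottom-watered. Injury was scored visually 14 days later on a 0-100 scale, where 0 is no damage and 100 is complete plant death.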

[14] = tested on: velvetleaf (Abutilon theophrasti, ABUTH); test: as above; settings: 14 days after application
Method in brief: as §2

[15] = tested on: lambsquarters (Chenopodium album, CHEAL); test: as above; settings: 14 days after application
Method in brief: as §2

[16] = tested on: sicklepod (Cassia obtusifolia, CASOB); test: as above; settings: 14 days after application
Method in brief: as §2

[17] = tested on: green foxtail (Setaria viridis, SETVI); test: as above; settings: 14 days after application
Method in brief: as §2

[18] = tested on: Johnsongrass (Sorghum halepense, SORHA); test: as above; settings: 14 days after application
Method in brief: as §2

[19] = tested on: large crabgrass (Digitaria sanguinalis, DIGSA); test: as above; settings: 14 days after application
Method in brief: as §2

[20] = tested on: barnyardgrass (Echinochloa crusgalli, ECHCG); test: as above; settings: 14 days after application
Method in brief: as §2

[21] = tested on: redroot pigweed (Amaranthus retroflexus, AMARE); test: as above; settings: 14 days after application
Method in brief: as §2

[22] = tested on: soybean (Glycine max L., var. Pella 86, SOY); test: Post-emerge greenhouse test, crop damage rating; settings: 14 days after application
Method in brief: as §2

[23] = tested on: upland rice (Oryza sp., var.Tebonnet, RICE); test: Post-emerge greenhouse test, crop damage rating; settings: 14 days after application
Method in brief: as §2

[24] = tested on: field corn (Zea mays L., var. Dekalb 535, CORN); test: Post-emerge greenhouse test, crop damage rating; settings: 14 days after application
Method in brief: as §2

[25] = tested on: soybean (Glycine max L., var. Pella 86, SOY); test: Pre-emerge greenhouse test, crop damage rating; settings: 14 days after application, rating scale 0-100
Method in brief: as §1

[26] = tested on: common ragweed (Ambrosia artemisiifolia L., AMBEL); test: Post-emerge greenhouse herbicide test, phytotoxicity rating; settings: 14 days after application
Method in brief: as §2

`Cc1nsc(Oc2cc(-n3nnn(CCCF)c3=O)c(F)cc2Cl)c1[N+](=O)[O-]` [Compound 6-17] was tested, and the “crop damage rating RICE” value ([1]; 125 g ai/ha) was 6, the “crop damage rating RICE” value ([1]; 500 g ai/ha) was 0 and the “crop damage rating CORN” value ([2]; 125 g ai/ha) was 0. For the same compound, the “crop damage rating CORN” value ([2]; 500 g ai/ha) was 0, the “phytotoxicity rating IPOHE” value ([3]; 125 g ai/ha) was 0 and the “phytotoxicity rating IPOHE” value ([3]; 500 g ai/ha) was 0. The “phytotoxicity rating AMBEL” value ([4]; 125 g ai/ha) was 0, the “phytotoxicity rating AMBEL” value ([4]; 500 g ai/ha) was 0 and the “phytotoxicity rating ABUTH” value ([5]; 125 g ai/ha) was 0. For the same compound, the “phytotoxicity rating ABUTH” value ([5]; 500 g ai/ha) was 0, the “phytotoxicity rating CHEAL” value ([6]; 125 g ai/ha) was 0 and the “phytotoxicity rating CHEAL” value ([6]; 500 g ai/ha) was 0. For the same compound, the “phytotoxicity rating CASOB” value ([7]; 125 g ai/ha) was 0, the “phytotoxicity rating CASOB” value ([7]; 500 g ai/ha) was 0 and the “phytotoxicity rating SETVI” value ([8]; 125 g ai/ha) was 0. The “phytotoxicity rating SETVI” value ([8]; 500 g ai/ha) was 0, the “phytotoxicity rating SORHA” value ([9]; 125 g ai/ha) was 0 and the “phytotoxicity rating SORHA” value ([9]; 500 g ai/ha) was 0. The “phytotoxicity rating DIGSA” value ([10]; 125 g ai/ha) was 0, the “phytotoxicity rating DIGSA” value ([10]; 500 g ai/ha) was 0 and the “phytotoxicity rating ECHCG” value ([11]; 125 g ai/ha) was 0. The “phytotoxicity rating ECHCG” value ([11]; 500 g ai/ha) was 0, the “phytotoxicity rating AMARE” value ([12]; 125 g ai/ha) was 0 and the “phytotoxicity rating AMARE” value ([12]; 500 g ai/ha) was 0. The “IPOHE phytotoxicity rating (0-100)” value ([13]; 63 g al/ha) was 0, the “IPOHE phytotoxicity rating (0-100)” value ([13]; 500 g al/ha) was 0 and the “ABUTH phytotoxicity rating (0-100)” value ([14]; 63 g al/ha) was 0. The “ABUTH phytotoxicity rating (0-100)” value ([14]; 500 g al/ha) was 0, the “CHEAL phytotoxicity rating (0-100)” value ([15]; 63 g al/ha) was 0 and the “CHEAL phytotoxicity rating (0-100)” value ([15]; 500 g al/ha) was 0. The “CASOB phytotoxicity rating (0-100)” value ([16]; 63 g al/ha) was 0, the “CASOB phytotoxicity rating (0-100)” value ([16]; 500 g al/ha) was 0 and the “SETVI phytotoxicity rating (0-100)” value ([17]; 63 g al/ha) was 0. For the same compound, the “SETVI phytotoxicity rating (0-100)” value ([17]; 500 g al/ha) was 0, the “SORHA phytotoxicity rating (0-100)” value ([18]; 63 g al/ha) was 0 and the “SORHA phytotoxicity rating (0-100)” value ([18]; 500 g al/ha) was 0. For the same compound, the “DIGSA phytotoxicity rating (0-100)” value ([19]; 63 g al/ha) was 0, the “DIGSA phytotoxicity rating (0-100)” value ([19]; 500 g al/ha) was 0 and the “ECHCG phytotoxicity rating (0-100)” value ([20]; 63 g al/ha) was 0. The “ECHCG phytotoxicity rating (0-100)” value ([20]; 500 g al/ha) was 0, the “AMARE phytotoxicity rating (0-100)” value ([21]; 63 g al/ha) was 0 and the “AMARE phytotoxicity rating (0-100)” value ([21]; 500 g al/ha) was 0. The “SOY crop damage rating (0-100)” value ([22]; 63 g al/ha) was 0, the “SOY crop damage rating (0-100)” value ([22]; 500 g al/ha) was 0 and the “RICE crop damage rating (0-100)” value ([23]; 63 g al/ha) was 0. The “RICE crop damage rating (0-100)” value ([23]; 500 g al/ha) was 0, the “CORN crop damage rating (0-100)” value ([24]; 63 g al/ha) was 0 and the “CORN crop damage rating (0-100)” value ([24]; 500 g al/ha) was 0. The “crop damage rating SOY” value ([25]; 125 g ai/ha) was 0, the “crop damage rating SOY” value ([25]; 500 g ai/ha) was 0 and the “AMBEL phytotoxicity rating (0-100)” value ([26]; 63 g al/ha) was 0. The “AMBEL phytotoxicity rating (0-100)” value ([26]; 500 g al/ha) was 0.

Reference: patent US6479435B1, “Diaryl ethers and processes for their preparation and herbicidal and desiccant compositions containing them” (ISK Americas Incorporated, priority 1997, dated 2002)
